Laboratory results taken from PubChem BioAssay (NCI).
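Following 48 hours of exposure in 96-well plates, responses at five concentrations were used to interpolate endpoints linearly. TGI: concentration producing complete growth inhibition.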

Key:
Assay in all cases: NCI-60 cell line screen, 48 h
RXF 393 renal = tested on: RXF 393 renal
OVCAR-8 ovarian = tested on: OVCAR-8 ovarian
NCI-H226 lung = tested on: NCI-H226 lung
COLO 205 colon = tested on: COLO 205 colon
MDA-N = tested on: MDA-N
SNB-19 CNS = tested on: SNB-19 CNS
SK-MEL-28 melanoma = tested on: SK-MEL-28 melanoma
LOX IMVI melanoma = tested on: LOX IMVI melanoma
HT29 colon = tested on: HT29 colon
UACC-62 melanoma = tested on: UACC-62 melanoma
786-0 renal = tested on: 786-0 renal
SF-268 CNS = tested on: SF-268 CNS
SF-539 CNS = tested on: SF-539 CNS
ACHN renal = tested on: ACHN renal
IGROV1 ovarian = tested on: IGROV1 ovarian
HCT-116 colon = tested on: HCT-116 colon
SK-MEL-2 melanoma = tested on: SK-MEL-2 melanoma
HL-60(TB) leukemia = tested on: HL-60(TB) leukemia
SR leukemia = tested on: SR leukemia
KM12 colon = tested on: KM12 colon
CAKI-1 renal = tested on: CAKI-1 renal
OVCAR-4 ovarian = tested on: OVCAR-4 ovarian
A549 NSCLC = tested on: A549 NSCLC
OVCAR-3 ovarian = tested on: OVCAR-3 ovarian
MDA-MB-435 = tested on: MDA-MB-435
SF-295 CNS = tested on: SF-295 CNS
MOLT-4 leukemia = tested on: MOLT-4 leukemia
TK-10 renal = tested on: TK-10 renal
NCI-H460 lung = tested on: NCI-H460 lung
K-562 leukemia = tested on: K-562 leukemia
SN12C renal = tested on: SN12C renal
PC-3 prostate = tested on: PC-3 prostate
SW-620 colon = tested on: SW-620 colon
HCT-15 colon = tested on: HCT-15 colon
OVCAR-5 ovarian = tested on: OVCAR-5 ovarian
UACC-257 melanoma = tested on: UACC-257 melanoma
SK-OV-3 ovarian = tested on: SK-OV-3 ovarian
NCI-H522 lung = tested on: NCI-H522 lung
SK-MEL-5 melanoma = tested on: SK-MEL-5 melanoma
RPMI-8226 leukemia = tested on: RPMI-8226 leukemia
M14 melanoma = tested on: M14 melanoma
A498 renal = tested on: A498 renal
U251 CNS = tested on: U251 CNS
EKVX NSCLC = tested on: EKVX NSCLC
HOP-92 NSCLC = tested on: HOP-92 NSCLC
BT-549 breast = tested on: BT-549 breast
CCRF-CEM leukemia = tested on: CCRF-CEM leukemia
UO-31 renal = tested on: UO-31 renal
NCI-H23 lung = tested on: NCI-H23 lung
MALME-3M melanoma = tested on: MALME-3M melanoma
HS 578T breast = tested on: HS 578T breast
HOP-62 NSCLC = tested on: HOP-62 NSCLC
SNB-75 CNS = tested on: SNB-75 CNS
DU-145 prostate = tested on: DU-145 prostate
NCI/ADR-RES ovarian = tested on: NCI/ADR-RES ovarian
MDA-MB-231 breast = tested on: MDA-MB-231 breast

CC(C)=CCNc1ncnc2c1c(C#N)cn2C1OC(CO)C(O)C1O (stereo unspecified)
TGI (RXF 393 renal): > 100 µM | TGI (OVCAR-8 ovarian): > 100 µM | TGI (NCI-H226 lung): > 100 µM | TGI (COLO 205 colon): 6.76 µM | TGI (MDA-N): > 100 µM | TGI (SNB-19 CNS): > 100 µM | TGI (SK-MEL-28 melanoma): > 100 µM | TGI (LOX IMVI melanoma): > 100 µM | TGI (HT29 colon): > 100 µM | TGI (UACC-62 melanoma): > 100 µM | TGI (786-0 renal): > 100 µM | TGI (SF-268 CNS): > 100 µM | TGI (SF-539 CNS): > 100 µM | TGI (ACHN renal): > 100 µM | TGI (IGROV1 ovarian): > 100 µM | TGI (HCT-116 colon): > 100 µM | TGI (SK-MEL-2 melanoma): > 100 µM | TGI (HL-60(TB) leukemia): 67.9 µM | TGI (SR leukemia): > 100 µM | TGI (KM12 colon): > 100 µM | TGI (CAKI-1 renal): > 100 µM | TGI (OVCAR-4 ovarian): 23.3 µM | TGI (A549 NSCLC): > 100 µM | TGI (OVCAR-3 ovarian): 77.1 µM | TGI (MDA-MB-435): > 100 µM | TGI (SF-295 CNS): > 100 µM | TGI (MOLT-4 leukemia): > 100 µM | TGI (TK-10 renal): 24.7 µM | TGI (NCI-H460 lung): 33.6 µM | TGI (K-562 leukemia): > 100 µM | TGI (SN12C renal): > 100 µM | TGI (PC-3 prostate): > 100 µM | TGI (SW-620 colon): > 100 µM | TGI (HCT-15 colon): > 100 µM | TGI (OVCAR-5 ovarian): > 100 µM | TGI (UACC-257 melanoma): > 100 µM | TGI (SK-OV-3 ovarian): > 100 µM | TGI (NCI-H522 lung): > 50.3 µM | TGI (SK-MEL-5 melanoma): > 100 µM | TGI (RPMI-8226 leukemia): > 72.9 µM | TGI (M14 melanoma): > 100 µM | TGI (A498 renal): > 72.6 µM | TGI (U251 CNS): > 100 µM | TGI (EKVX NSCLC): > 100 µM | TGI (HOP-92 NSCLC): > 100 µM | TGI (BT-549 breast): > 100 µM | TGI (CCRF-CEM leukemia): 81.5 µM | TGI (UO-31 renal): > 100 µM | TGI (NCI-H23 lung): > 100 µM | TGI (MALME-3M melanoma): > 100 µM | TGI (HS 578T breast): > 100 µM | TGI (HOP-62 NSCLC): > 100 µM | TGI (SNB-75 CNS): > 100 µM | TGI (DU-145 prostate): > 100 µM | TGI (NCI/ADR-RES ovarian): > 100 µM | TGI (MDA-MB-231 breast): > 100 µM
